In patent publication US20090209512A1, “NEUROGENESIS INDUCER OR NEUROPATHY THERAPEUTIC AGENT COMPRISING ALKYL ETHER DERIVATIVE OR SALT THEREOF” (Toyama Chemical Co., Ltd., priority 2006, published 2009):

Experiments:
Male DBA/2J mice = assay: Novelty-suppressed feeding (NSF) test; type: in vivo; conditions: 10 mg/kg orally for 28 days
Description: The novelty-suppressed feeding (NSF) test (Santarelli et al., 2003, Science. 301: 805-9) was performed to assess antidepressant efficacy of T-817MA. Male DBA/2J mice (7 weeks old, 20-21 animals/group) were used. We administrated mice orally with T-817MA (10 mg/kg), or vehicle (distilled water) for 28 days before NSF test. At the time of testing, mice that had been food deprived for 24 hours were gently placed in a corner of a brightly lit arena (approximately 650 lux at floor of arena, 50×50×20 cm) for a maximum of 5 minutes. The floor was covered with approximately 2 cm of bedding. Pellet of food was attached by wire at the center of the arena. […] Statistical differences between vehicle group and T-817MA treated group were found by Dunnett test.

[1] = system: cultured neural stem cells; assay: Effect on differentiation of cultured neural stem cell (Tuj1-positive cell ratio); type: cell-based, ICR mouse
Description: Cultured neural stem cells were prepared according to the partially modified method of Hirabayashi (Development, 2004, 131(12), p. 2791-2801). The cerebrum was removed from an ICR mouse embryo (embryonic day 14) and incubated in artificial cerebrospinal fluid (124 mM NaCl, 5 mM KCl, 1.3 mM MgCl2, 2 mM CaCl2, 26 mM NaHCO3, 10 mM D-Glucose, pH 7.4) containing 0.0625% trypsin and 0.1 mg/mL of DNaseI at 37° C. for 5 min. A trypsin inhibitor (final concentration: 0.35 mg/mL) was then added and the mixture was centrifuged at 800 rpm for 5 min. The obtained pellet was dispersed by pipetting in a neural stem cell culture medium (DMEM/F-12 culture medium containing 20 ng/mL basic fibroblast growth factor, 20 ng/mL epidermal growth factor and B27 supplement (Invitrogen)) to obtain single cell suspension. […]
After 3 days of culturing, the cells were washed with phosphate-buffered saline (PBS), fixed with 4% paraformaldehyde/phosphate buffer, treated with 0.3% Triton X-100/PBS solution at room temperature for 5 minutes, washed with PBS, and incubated with 0.5% skim milk at room temperature for 1 hour. […] The cells were washed with PBS and observed under fluorescence microscope, and the number of the Tuj1-positive cells emitting red fluorescence was counted, and its ratio against the total cell number was calculated as the differentiation ratio into neurons representing a neurogenesis inducing effect.

[2] = system: cultured neural stem cells; conditions: Proc. Natl. Acad. Sci. U.S.A., 2004, 101(47), pp. 16659-64; cited from earlier work

For `OC1CN(CCCOCCc2ccc3sccc3c2)C1` [T-817MA, 1-(3-(2-(1-benzothiophen-5-yl)ethoxy)propyl)azetidin-3-ol], the “NSF latency (mean)” value (Male DBA/2J mice; mice food deprived 24 hours, vehicle 227.2) was 145.5 s, the “Latency to feed vs vehicle group” value (Male DBA/2J mice; P<0.01, Dunnett test) was “significant decreased latency to feed” and the “Differentiation ratio compared with control group (neurogenesis inducing effect)” value ([1]; T-817MA 10 μM vs B27 supplemented DMEM/F-12 alone) was “higher differentiation ratio”. For the same compound, the “Differentiation ratio into neurons (%) (Ratio of Tuj1 positive cells)” value ([1]; T-817MA 10 μM, 3 days of culturing, B27-supplemented DMEM/F-12, control group 13.0) was 27.4%.
In the case of `CCCC(CCC)C(=O)O` [valproic acid], the “Neurogenesis inducing effect in cultured neural stem cells” value [2] is given as “show the neurogenesis inducing effect”.
